Patent EP3673920A1, “POLYPHENOL-PEPTIDE CONJUGATES FOR NUCLEAR-TARGETED DELIVERY” (Universität Wien, priority 2018, dated 2020)

Tested on: HT-29 cells
Assay: Comet assay (single cell gel electrophoresis), genotoxic potential
Format: cell-based, Human
Details: concentration corresponding to quercetin 70 µM

O=c1c(O)c(-c2ccc(O)c(O)c2)oc2cc(O)cc(O)c12 [quercetin]
genotoxic effect / DNA integrity: genotoxic effect
